Data on 5 molecules can be found in patent US4064121A, “Substituted nitrobenzophenone derivatives and a process for the preparation thereof” (Richter Gedeon Vegyeszeti Gyar Rt., priority 1973, dated 1977).

The structures appear in SMILES notation.

Broadly, the LD50 is the dose expected to kill half of the subjects tested.

One data set relates to liver microsomal enzyme. Description: Enzyme inductive effect (shortening of hexobarbital sleeping time in Wistar female rats). The data set is classed as in vivo. The note with it: for Mean duration of sleeping ± S.E.: 60 mg./kg. p.o., 24 hours later hexobarbital 40 mg./kg. i.v., female Wistar rats, control 19.4 ± 1.88. As to the method: As reference substances, phenobarbital and phenacetine were used in the experiments. The pharmacological tests were carried out as follows:
To investigate the enzyme inductive effect, Wistar female rats, each weighing 40 to 50 g. were treated with pure solvent, or with a dosage of 60 mg./kg. of phenobarbital or the compound to be tested, respectively. 24 hours after this treatment 40 mg./kg. of hexobarbital were administered intravenously into the animals. The reduction of the elimination period and the liver enzyme induction was expressed as the shortening of the duration of sleeping.

The nature of data set [1]: LD50 p.o. (acute toxicity). The note with it: in vivo, po, species not given.
The subject of data set [2] is central nervous system. Briefly: Central nervous system effects (anticonvulsive, rotarod muscle relaxation, sedative tests). In kind it is in vivo. The note with it: in the dosage utilized. A general note: Falling from the rotarod earlier than controls is read as motor impairment.
Data set [3] in a line: Antipyretic effect (rectal temperature after yeast suspension and pyrago in male rats). The note with it: 40 mg./kg. orally, yeast and pyrago fever, recorded for 5 hours. The data set is classed as in vivo. As to the method: To test the antipyretic effect, a 15% yeast suspension was administered to male rats each weighing 180 ±10 g. No food was given to the animals, they could consume, however, arbitrary amount of water. 16 hours after the administration of yeast the rectal body temperature of the animals was taken, and the animals were treated with pyrago in an intravenous dosage of 50 M bact./animal. The compound to be tested was administered orally into the animals, thereafter the change in rectal temperature both for the treated and the control animals was recorded for 5 hours, using an "Elab" type electrothermometer. Phenacetine, used as reference substance, and the compounds of the invention were administered in dosages of 40 mg./kg. body weight.

Data set [4] concerns central nervous system. The note with it: known effects at the test animals; cited from earlier work.

With `O=C(c1ccccc1)c1ccc(N2CCOCC2)c([N+](=O)[O-])c1` [Example B2, 3-nitro-4-morpholino-benzophenone], the “Mean duration of sleeping ± S.E.” value in the data set on liver microsomal enzyme (* = p>0.05 (below a significance level of 5 %)) turned out to be 14.6 ± 1.65 min. Moreover, the inductive effect entry in the data set with liver microsomal enzyme (in words, compared with phenobarbital) is “the same as that of phenobarbital”. The molecule also displayed a 50% lethal dose (LD50) in data set [1] of 1200 mg/kg. Further, in the data set with central nervous system [2], the “effect on the central nervous system” value is listed as “no effect on the central nervous system”.

Take `CC(C)CN(CC(C)C)c1ccc(C(=O)c2ccccc2)cc1[N+](=O)[O-]` [Example B9, 3-Nitro-4-(N.N-diisobutylamino)-benzophenone]: the Decrease of temperature in data set [3] was -1.0 °C. In addition, the LD50 in data set [1] is more than 3000 mg/kg.

In data set [3], `CC[N+]1(C)CCN(c2ccc(C(=O)c3ccccc3)cc2[N+](=O)[O-])CC1` [Example B11, 3-nitro-4-(N-methyl-piperazino)-benzophenone ethobromide] had a Decrease of temperature of -1.1 °C. In addition, the LD50 in data set [1] is more than 3000 mg/kg.

On to `CCOc1ccc(NC(C)=O)cc1` [Phenacetine, reference compound], for which, in data set [3], the Decrease of temperature is -1.1 °C.

Turning to `CCC1(c2ccccc2)C(=O)NC(=O)NC1=O` [Phenobarbital, reference compound], the “Mean duration of sleeping ± S.E.” value in the data set with liver microsomal enzyme (* = (below a significance level of 5 %)) was 14.2 ± 1.88 min. In the data set on central nervous system [4], the “effects on the central nervous system” value is “significant effects on the central nervous system, which manifests at the test animals in ataxia, sedatio and anticonvulsive effect”.
